Where two headings read alike, the source gives them in different places.
Experiments:
[1] = Binding assay to hydroxyapatite (HA); details: 0.5 mg/mL, 20 mg HA, PBS
Protocol: Hydroxyapatite (HA) treatment. […] The experiment was carried out for 0-12 days, in stirring at 120 rpm. […] The supernatant was centrifuged for 8 min (500 rcf) and the absorbance was measured at 231 nm. Solid samples were characterized by SEM-EDS, TGA, and PXRD.
The experiment was carried out for 0-12 days, in constant stirring at 120 rpm. […] The supernatant was centrifuged for 8 min (500 rcf) and the absorbance was measured at 231 nm. Solid samples were characterized by SEM-EDS and PXRD.

[2] = tested on: human breast cancer MDA-MB-231 cell line; type: cell-based; details: 0-200 μM
Protocol: (§1) Cell Culture Methods. Media with DMEM, 5% FBS, and 1% Pen-Strep were used to incubate MDA-MB-231 cells at 37° C. with 5% CO2. The osteoblast hFOB 1.19 cell line was incubated at 34° C., 5% CO2, in 1:1 DMEM:F-12 supplemented with 0.3 mg/mL G418, and 10% FBS. Cell passages were performed weekly at 80.0% confluency. Media exchanges were carried out twice every 7 d.
(§2) Cell treatment. […] Cells (MDA-MB-231, hFOB 1.19) were seeded in 96 well plates at a density of 2.5×10^5 cells/mL. The 96 well plates were incubated at 37° C. with 5% CO2 for 24 h. Three 96 well plates were prepared per time point (24, 48, and 72 h). […] Cells were incubated at 37° C. and 5% CO2 for 24, 48, and 72 h. Control groups were treated with media (MDA-MB-231 with DMEM, 1% Pen-Strep) and (hFOB 1.19 with 1:1 DMEM:F-12, 0.3 mg/mL G418). Cell proliferation was determined after each point time of treatment. A 10% AlamarBlue® solution was previously prepared using PBS. The media was removed from all 96 well plates and 100 μL of AlamarBlue® solution was added. The 96 well plates were incubated for 4 h (MDA-MB-231 at 37° C., 5% CO2) and (hFOB 1.19 at 34° C., 5% CO2). The fluorescence was measured at 560 nm of excitation and lambda max 590 nm of emission. […] The experiments for the % RCL were performed employing the same conditions previously mentioned for the IC50 determination. All experiments were accomplished in triplicate. The GraphPad Prism 8 vs 8.3.1 was utilized to generate the IC50 curves and to plot the % RCL graphs.
(§3) Furthermore, the cytotoxicity of these materials was also achieved using the osteoblast-like hFOB 1.19 cell line, within work, these immortalized human cells were used to simulate the human bone microenvironment (not cancerous cells). […] Control groups were treated with media (DMEM, 1% Pen-Strep, MDA-MB-231) and (1:1 DMEM:F12, 0.3 mg/mL G418, hFOB 1.19), respectively. AlamarBlue® assay was employed to determine cell proliferation after each time point.
as §1, with “Methods—Media” for “Methods. Media”, “CO2” for “CO2,”
(§4) Cell seeding—Both cells were seeded in 96 well plates at a density of 2.5×10^5 cells/mL. The 96 well plates were incubated at 37° C. (MDA-MB-231) and 34° C. […] Experiments were performed in triplicate.
(§5) (MDA-MB-231) and 34° C. […] All experiments were accomplished in triplicate.

[3] = tested on: normal osteoblast-like hFOB 1.19 cell line; type: cell-based; details: 0-200 μM
Protocol: as §1, §2, §3
as §1, with “Methods—Media” for “Methods. Media”, “CO2” for “CO2,”
as §4, §5

[4] = after 7 days, binding curve before reported; cited from earlier work

With “benzene 1,4-bis(bisphosphonic acid) [BBPA]” the “% Binding to HA” value ([1]; 0 d) was 0%, the “% Binding to HA” value ([1]; 1 d) was 1% and the “% Binding to HA” value ([1]; 2 d) was 39%. For the same molecule, the “% Binding to HA” value ([1]; 3 d) was 54%, the “% Binding to HA” value ([1]; 4 d) was 74% and the IC50 ([2]; MDA-MB-231, 24 h of treatment) was greater than 200 µM. For the same molecule, the IC50 ([2]; MDA-MB-231, 48 h of treatment) was greater than 200 µM, the IC50 ([2]; MDA-MB-231, 72 h of treatment) was greater than 200 µM and the IC50 ([3]; hFOB 1.19, 24 h of treatment) was greater than 200 µM. The IC50 ([3]; hFOB 1.19, 48 h of treatment) was greater than 200 µM and the IC50 ([3]; hFOB 1.19, 72 h of treatment) was greater than 200 µM.
For `NCCCC(O)(P(=O)(O)O)P(=O)(O)O` [ALEN, Alendronic acid], the “% Binding to HA” value [4] is given as greater than 95%.
